Earlier results as cited in patent US20180146647A1, “MEDETOMIDINE FOR USE IN CONTROLLING PARASITIC CRUSTACEANS ON FISH” (I-Tech AB, priority 2015, published 2018).

Key:
cyprid larvae = settings: medetomidine 10 nM; Mol Pharmacol 78:237-248, 2010
algae = settings: target protein lacking within algae
α2-adrenoceptor = settings: given to mammals and fish; Sinclair, 2003; Ruuskanen et al., 2005

Cc1cccc(C(C)c2c[nH]cn2)c1C (racemic) [Medetomidine, (±) 4-[1-(2,3-Dimethylphenyl)ethyl]-1H-imidazole]
kicking of the cyprid larvae (cyprid larvae): more than 100 kicks per minute
effect on algal growth (algae): no effect on algal growth
physiological effect in vertebrates (α2-adrenoceptor): sedation and locomotor inhibition
